In patent US9957268B2, “1H-pyrrolo[2,3,c]pyridin-7(6H)-ones and pyrazolo[3,4-c]pyridin-7(6H)-ones as inhibitors of BET proteins” (Incyte Corporation, priority 2014, dated 2018):

What was measured:
BRD4-BD1 = BRD4-BD1 (Homo sapiens (Human), UniProt O60885); test: BRD4 AlphaScreen assay (BRD4-BD1); assay type: binding; details: biotin-labeled tetra-acetylated histone H4 peptide
Procedure: (§1) BRD4-BD1 and BRD4-BD2 assays were conducted in white 384-well polystyrene plate in a final volume of 40 μL for BD1 and 60 μL for BD2. Inhibitors were first serially diluted in DMSO and added to the plate wells before the addition of other reaction components. The final concentration of DMSO in the assay was 1.25% (BD1) and 0.83% (BD2). The assays were carried out at room temperature in the assay buffer (50 mM Tris-HCl, pH 7.5, 0.01% Tween-20, 0.01% BSA, 5 mM DTT), containing 50 nM Biotin-labeled tetra-acetylated histone H4 peptide (H4Ac4) and BRD4-BD1 or BRD4-BD2 protein at concentration less than 1 nM. The incubation for 75 min. was followed by the addition of 20 μL of assay buffer supplemented with Streptavidin donor beads (PerkinElmer 6760002) and GSH Acceptor beads (PerkinElmer-AL109C) at final concentration 2-4 μg/mL under reduced light. After plate sealing, the plate was incubated in the dark at room temperature for 75 min. before reading on a PHERAstar FS plate reader (BMG Labtech). IC50 determination was performed by fitting the curve of percent control activity versus the log of the inhibitor concentration using the GraphPad Prism 5.0 software.

BRD4-BD2 = BRD4-BD2 (Homo sapiens (Human), UniProt O60885); test: BRD4 AlphaScreen assay (BRD4-BD2); assay type: binding; details: biotin-labeled tetra-acetylated histone H4 peptide
Procedure: as §1

| SMILES | IC50 (BRD4-BD1) [nM] | IC50 (BRD4-BD2) [nM] |
| --- | --- | --- |
| CC(C)C1Oc2c(-c3cn(C)c(=O)c4[nH]ccc34)cc(C(N)=O)cc2N(C)C1=O (stereo not drawn) [Example 19, 2-isopropyl-4-methyl-8-(6-methyl-7-oxo-6,7-dihydro-1H-pyrrolo[2,3-c]pyridin-4-yl)-3-oxo-3,4-dihydro-2H-1,4-benzoxazine-6-carboxamide] | 100 to 1000 | ≤ 100 |
| COc1cc2c(c(-c3cn(C)c(=O)c4[nH]ccc34)c1)OC(C)(C)C(=O)N2 [Example 27, 6-methoxy-2,2-dimethyl-8-(6-methyl-7-oxo-6,7-dihydro-1H-pyrrolo[2,3-c]pyridin-4-yl)-2H-1,4-benzoxazin-3(4H)-one] | ≤ 100 | ≤ 100 |
| CCS(=O)(=O)c1cc2c(c(-c3cn(C)c(=O)c4[nH]ccc34)c1)OC(C)(C)C(=O)N2 [Example 78, 6-(ethylsulfonyl)-2,2-dimethyl-8-(6-methyl-7-oxo-6,7-dihydro-1H-pyrrolo[2,3-c]pyridin-4-yl)-2H-1,4-benzoxazin-3(4H)-one] | ≤ 100 | ≤ 100 |
| CC(=O)c1cc(-c2cn(C)c(=O)c3[nH]ccc23)c2c(c1)N(C)C(=O)C(C)(C)O2 [Example 82, 6-acetyl-2,2,4-trimethyl-8-(6-methyl-7-oxo-6,7-dihydro-1H-pyrrolo[2,3-c]pyridin-4-yl)-2H-1,4-benzoxazin-3(4H)-one] | ≤ 100 | ≤ 100 |
| COc1cc2c(c(-c3cn(C)c(=O)c4[nH]ccc34)c1)OC(c1ccc(F)cc1Cl)C(=O)N2 (stereo not drawn) [Example 25, 2-(2-chloro-4-fluorophenyl)-6-methoxy-8-(6-methyl-7-oxo-6,7-dihydro-1H-pyrrolo[2,3-c]pyridin-4-yl)-2H-1,4-benzoxazin-3(4H)-one] | ≤ 100 | ≤ 100 |
| CC1Oc2c(cccc2-c2cn(C)c(=O)c3[nH]ccc23)NC1=O (stereo not drawn) [Example 3, 2-methyl-8-(6-methyl-7-oxo-6,7-dihydro-1H-pyrrolo[2,3-c]pyridin-4-yl)-2H-1,4-benzoxazin-3(4H)-one] | 100 to 1000 | ≤ 100 |
| COc1cc2c(c(-c3cn(C)c(=O)c4[nH]ccc34)c1)OC(c1ccccc1)C(=O)N2 (single isomer, unassigned) [Example 24A, 6-methoxy-8-(6-methyl-7-oxo-6,7-dihydro-1H-pyrrolo[2,3-c]pyridin-4-yl)-2-phenyl-2H-1,4-benzoxazin-3(4H)-one] | ≤ 100 | ≤ 100 |

Results, then the molecule that gave them:

| IC50 (BRD4-BD1) [nM] | IC50 (BRD4-BD2) [nM] | SMILES |
| --- | --- | --- |
| 100 to 1000 | 100 to 1000 | COc1cc(-c2cn(C)c(=O)c3[nH]ccc23)c2c(c1)N(CC(=O)O)C(=O)C(C(C)C)O2 (stereo not drawn) [Example 11, [2-isopropyl-6-methoxy-8-(6-methyl-7-oxo-6,7-dihydro-1H-pyrrolo[2,3-c]pyridin-4-yl)-3-oxo-2,3-dihydro-4H-1,4-benzoxazin-4-yl]acetic acid] |
| ≤ 100 | ≤ 100 | Cn1cc(-c2cccc3c2OC(C2CCOCC2)C(=O)N3)c2cc[nH]c2c1=O (stereo not drawn) [Example 7, 8-(6-methyl-7-oxo-6,7-dihydro-1H-pyrrolo[2,3-c]pyridin-4-yl)-2-(tetrahydro-2H-pyran-4-yl)-2H-1,4-benzoxazin-3(4H)-one] |
| 100 to 1000 | ≤ 100 | CC(C)C1Oc2c(-c3cn(C)c(=O)c4[nH]ccc34)cc(C#N)cc2N(C)C1=O (stereo not drawn) [Example 18, 2-isopropyl-4-methyl-8-(6-methyl-7-oxo-6,7-dihydro-1H-pyrrolo[2,3-c]pyridin-4-yl)-3-oxo-3,4-dihydro-2H-1,4-benzoxazine-6-carbonitrile] |
| ≤ 100 | ≤ 100 | Cn1cc(-c2cccc3c2OC(c2ccccc2)C(=O)N3)c2cc[nH]c2c1=O (stereo not drawn) [Example 1, 8-(6-methyl-7-oxo-6,7-dihydro-1H-pyrrolo[2,3-c]pyridin-4-yl)-2-phenyl-2H-1,4-benzoxazin-3(4H)-one] |
| ≤ 100 | ≤ 100 | COc1cc(-c2cn(C)c(=O)c3[nH]ccc23)c2c(c1)N(C)C(=O)C(C(C)C)O2 (stereo not drawn) [Example 10, 2-isopropyl-6-methoxy-4-methyl-8-(6-methyl-7-oxo-6,7-dihydro-1H-pyrrolo[2,3-c]pyridin-4-yl)-2H-1,4-benzoxazin-3(4H)-one] |
